Test results from US9642859B2, “Use of capsazepine and analogs thereof to treat cancer” (THE BOARD OF REGENTS OF THE UNIVERSITY OF TEXAS SYSTEM, priority 2012, dated 2017).

What was measured:
[1] = tested on: SCC25 xenografts; test: OSCC mouse xenograft model, SCC25; type: in vivo, athymic nude (nu/nu) mice
From the text: (§1) Animals. Six week-old female athymic nude (nu/nu) mice were purchased from HARLAN Laboratories (Indianapolis, Ind.) and used in a laminar air-flow cabinet under pathogen-free conditions. They were provided with a 12-h light/dark schedule at controlled temperature and humidity with food and water ad libitum. Mice were allowed to acclimate for at least one week prior to the start of the experiments. All procedures were approved by the UTHSCSA (University of Texas Health Science Center—San Antonio) Institutional Animal Care and Use Committee.
OSCC Mouse Xenograft Model. Mice were injected subcutaneously in the right flank with 2×10^6 HSC3, SCC4, or SCC25 cells in 0.1 ml of sterile phosphate buffered saline (each of these cell lines is published in scientific literature). Four weeks post-inoculation, tumors had grown to an average volume of 110 mm^3. […] The injections were repeated every other day and for a total of at least 14 days.
(§2) Treatments. CPZ (5 mg) was diluted in 250 μl of 100% DMSO to yield a final concentration of 20 μg/μl of stock solution. Stock solution (100 m) was subsequently diluted in 7% DMSO in sterile saline generating a final concentration of 1 μg/μl. […] Control xenografts were injected intra-tumorally with 40 μl of vehicle control (7% DMSO). Mice were monitored daily for tumor growth, cachexia, and weight loss. Tumor volumes and body weight were recorded every other day. Tumor volumes were calculated by the formula: (4π/3)×(w/2)2×(l/2), where w=width and l=length. Measurements were made using a digital caliper. At the conclusion of the experiments, mice were anaesthetized with isoflurane and cervical dislocation, blood was collected, and the serum was separated and stored at −80° C. until assayed. Biochemical analysis of serum was performed by the Mouse Metabolic Phenotyping Center (Yale School of Medicine, New Haven, Conn.). Tumors were dissected and placed in 10% neutral buffered formalin (SIGMA, St. Louis, Mo.) and processed for histological analysis.

[2] = Liver and kidney function tests of tumor bearing mice; type: in vivo; settings: 40 μg CPZ intra-tumoral every other day over 14 days
Method: FIG. 14. Liver and kidney function tests of tumor bearing mice following two week treatment with either vehicle control (Control) or 40 μg CPZ in 40 μl Veh medium (1 μg/μl) injected directly into tumor every other day over 14 days (CPZ).
Treatments. CPZ (5 mg) was diluted in 250 μl of 100% DMSO to yield a final concentration of 20 μg/μl of stock solution. Stock solution (100 m) was subsequently diluted in 7% DMSO in sterile saline generating a final concentration of 1 μg/μl. A total of 40 μg in 40 μl was injected intra-tumorally. Control xenografts were injected intra-tumorally with 40 μl of vehicle control (7% DMSO). Mice were monitored daily for tumor growth, cachexia, and weight loss. Tumor volumes and body weight were recorded every other day. Tumor volumes were calculated by the formula: (4π/3)×(w/2)2×(l/2), where w=width and l=length. Measurements were made using a digital caliper. […]
At the conclusion of the experiment, serum was collected for liver and kidney function analysis. […] Tumors were analyzed histologically using H&E (hematoxylin and eosin) and TUNEL (terminal deoxyribonucleotidyl transferase-mediated dUTP nick end labeling) staining for detection of DNA fragmentation associated with apoptosis, and apoptotic figures were quantified. […]

[3] = tested on: OSCC cell lines (HSC3, SCC4, and SCC25)
Method: Cell viability assays reported as % of vehicle control (n=3). […] VEH=delivery vehicle control without CAP or CPZ. *p<0.05, ***p<0.001.
FIG. 1H-1: Cell viability assays of OSCC cell lines treated with 30 μM CPZ alone or in combination with 10 mM N-Acetyl-L-Cysteine (NAC) for 24 h (n=4); ***p<0.001.
Human OSCC Cell Lines. The human OSCC cell lines MDA231, PS3, SCC4 and SCC25 were obtained from ATCC (American Type Culture Collection, Rockville, Md.). The HSC3 cell line was obtained from the Japanese Cell Resource Bank (Osaka, Japan). […] Cells were maintained in DMEM (GIBCO, Carlsbad, Calif.) supplemented with 10% FBS at 37° C. in 5% CO2. Both cell lines were derived from primary OSCC tumors from the tongues of male patients in their fifth generation of life. Data regarding pertinent medical history, treatment, outcome of care and recurrence were not available.
Statistical Analysis. Statistical analyses were performed using GraphPad Prism4 (San Diego, Calif.). Experiments were performed in triplicate and results are represented as means+SD except when indicated. […] Cytotoxicity assays of cell viability were analyzed by one-way ANOVA and Bonferroni's post-hoc test (n=3).

[4] = rat model, high intravenous administration dose; cited from earlier work
[5] = tested on: SCC4 xenografts; test: OSCC mouse xenograft model, SCC4; type: in vivo, athymic nude (nu/nu) mice
From the text: as §1
OSCC Mouse Xenograft Model. Mice were injected subcutaneously in the right flank with 2×10^6 HSC3, SCC4, or SCC25 cells in 0.1 ml of sterile phosphate buffered saline (each of these cell lines is published in scientific literature). Four weeks post-inoculation, tumors had grown to an average volume of 110 mm^3. Mice were then divided into two experimental groups of five animals each, which received the following treatments as intra-tumoral injections: group A, vehicle control (7% DMSO in sterile saline); group B, CPZ treatment (40 μg). The injections were repeated every other day and for a total of at least 14 days.
as §2, with “Tumors were dissected and placed in 10% neutral buffered formalin (SIGMA, St. Louis, Mo.) and processed for histological analysis.” left out

[6] = Tolerability observations in tumor bearing mice treated intratumorally; type: in vivo
Method: Treatments. CPZ (5 mg) was diluted in 250 μl of 100% DMSO to yield a final concentration of 20 μg/μl of stock solution. Stock solution (100 m) was subsequently diluted in 7% DMSO in sterile saline generating a final concentration of 1 μg/μl. A total of 40 μg in 40 μl was injected intra-tumorally. Control xenografts were injected intra-tumorally with 40 μl of vehicle control (7% DMSO). Mice were monitored daily for tumor growth, cachexia, and weight loss. Tumor volumes and body weight were recorded every other day. Tumor volumes were calculated by the formula: (4π/3)×(w/2)2×(l/2), where w=width and l=length. Measurements were made using a digital caliper. At the conclusion of the experiments, mice were anaesthetized with isoflurane and cervical dislocation, blood was collected, and the serum was separated and stored at −80° C. until assayed. Biochemical analysis of serum was performed by the Mouse Metabolic Phenotyping Center (Yale School of Medicine, New Haven, Conn.). Tumors were dissected and placed in 10% neutral buffered formalin (SIGMA, St. Louis, Mo.) and processed for histological analysis.

Oc1cc2c(cc1O)CN(C(=S)NCCc1ccc(Cl)cc1)CCC2 [CPZ, 2-[2-(4-chlorphenyl)ethylamino-thiocarbonyl]-7,8-dihydroxy-2,3,4,5-tetrahydro-1H-2-benzazepine]
decrease in tumor volume ([1]; 20 μg CPZ (1 μg/μl) injections over two weeks, FIG. 13): 57.5% | healing of xenografts ([1]; 20 μg CPZ intra-tumoral every other day): Nearly complete healing | tumor volume ([1]; 20 μg CPZ intra-tumoral every other day, two weeks, p<0.05): significant reduction in tumor volume | liver and kidney function [2]: No negative effects on liver or kidney function were detected | cytotoxicity [3]: significant dose dependent cytotoxicity | hyperthermia [4]: does not cause hyperthermia | tumor growth rate ([5]; 40 μg CPZ intra-tumoral every other day, two weeks, p<0.05): significant reduction in tumor growth rate | growth of vehicle-control-treated tumors versus CPZ treated ([5]; 40 μg CPZ, day sixteen, p<0.01): two-fold greater | difference in tumor growth rates between vehicle control and treated mice ([5]; 60 μg CPZ, repeat experiments (data not shown)): 3 fold | body weight ([6]; approximately two-week intra-tumoral CPZ treatment): did not lose weight | adjacent healthy tissues ([6]; intratumoral injection with CPZ): No inflammation, ulceration, necrosis or pain were evident
